Assay results reported in patent US20080175918A1, “CHEMICALLY CROSS-LINKED ELASTOMERIC MICROCAPSULES” (priority 2005, published 2008).

Test: Rhodamine release from chemically cross-linked poly(dimethyl siloxane) microcapsules (fluorescence photomicrographs, confocal microscopy)
Type: physicochemical
Text: FIGS. 18(a)-(c). A series of photomicrographs (200× magnification) depicting a population of rhodamine B-containing chemically cross-linked elastomeric microcapsules one hour and one year after manufacturing. […] In Particular:
Elastomer-Permeable Therapeutic Agent Microencapsulation. Rhodamine dye was encapsulated within chemically cross-linked poly(dimethyl siloxane) microcapsules utilizing the hydrophilic agent encapsulation methods at low concentrations due to the hydrophilicity of the aqueous solution. However, rhodamine is hydrophobic and permeates vulcanized poly(dimethyl siloxane) in the same fashion as a hydrophobic therapeutic agent. The resultant population of microspheres was sieved and re-suspended in a dilute aqueous poly(vinyl alcohol) solution. Upon resuspension in the rhodamine-free aqueous solution, a series of fluorescence photomicrographs were obtained.
To further investigate the shell-permeability and partition coefficient of the rhodamine within chemically cross-linked elastomeric microcapsules samples of the population of microcapsules that was tested for release were imaged by confocal microscopy.

With `CCN(CC)c1ccc2c(-c3ccccc3C(=O)O)c3ccc(=[N+](CC)CC)cc-3oc2c1` [Rhodamine dye, rhodamine B] the “extended release of a model therapeutic (duration)” value (rhodamine in aqueous cores of cross-linked poly(dimethyl siloxane) microcapsules, in dilute aqueous poly(vinyl alcohol), unstirred at room temperature) was “greater than one year” and the burst effect (upon resuspension in rhodamine-free aqueous solution) was “No burst effect was observed”.
